Measurements from US20260365670A1, “EGFR INHIBITORS AND USES THEREOF” (DIZAL (JIANGSU) PHARMACEUTICAL CO., LTD., priority 2022, published 2026).
pIC50: −log10 of the molar value. Where two headings read alike, the source gives them in different places.

Assays:
EGFR wild type = target: T1, EGFR wild type (Homo sapiens, UniProt P00533); assay: Inhibition of EGFR wild type biochemical enzymatic activity (HTRF); conditions: EGFR WT, 1 mM ATP, 1 h, room temperature, read-out: IC50 (nM) @WT
T1 construct: purchased Carna Bio
Summary of the method: (§1)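 Following 1 h at room temperature with titrated compound, 1 mM ATP and 1 μM biotin-TK peptide (Mg2+/Mn2+, CHAPS, DTT, 0.5% DMSO buffer), EDTA-containing detection reagent terminated each enzyme reaction. Time-resolved fluorescence (ex 320, em 665/615 nm) ratio tracked activity. IC50 values came from four-parameter fits.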

EGFR L858R = target: T2, EGFR L858R (Homo sapiens, UniProt P00533, L858R); assay: Inhibition of EGFR L858R biochemical enzymatic activity (HTRF); conditions: 1 mM ATP, 1 h, room temperature, read-out: IC50 (nM) @L858R
T2 construct: purchased Carna Bio
Summary of the method: as §1

EGFR L858R/T790M = target: T3, EGFR L858R/T790M (Homo sapiens, UniProt P00533, L858R/T790M); assay: Inhibition of EGFR L858R/T790M biochemical enzymatic activity (HTRF); conditions: EGFR L858R-T790M, 1 mM ATP, 1 h, room temperature, read-out: IC50 (nM) @L858R-T790M
T3 construct: purchased Carna Bio
Summary of the method: as §1

EGFR Exon19Del = target: T4, EGFR Exon19Del (Homo sapiens, UniProt P00533, DEL746-750); assay: Inhibition of EGFR Exon19Del biochemical enzymatic activity (HTRF); conditions: EGFR Del19, 1 mM ATP, 1 h, room temperature, read-out: IC50 @Del19
T4 construct: purchased Carna Bio
Summary of the method: as §1

EGFR Exon19Del/T790M = target: T5, EGFR Exon19Del/T790M (Homo sapiens, UniProt P00533, DEL746-750/T790M); assay: Inhibition of EGFR Exon19Del/T790M biochemical enzymatic activity (HTRF); conditions: EGFR Del19-T790M, 1 mM ATP, 1 h, room temperature, read-out: IC50 (nM) @Del19-T790M
T5 construct: purchased Carna Bio
Summary of the method: as §1

EGFR[T790M/C797S/L858R] = target: T6, EGFR[T790M/C797S/L858R] (Homo sapiens, UniProt P00533, C797S/L858R/T790M); assay: Inhibition of EGFR[T790M/C797S/L858R] biochemical enzymatic activity (HTRF); conditions: EGFR T790M-C797S-L858R, 1 mM ATP, 1 h, room temperature, read-out: IC50 (nM) @T790M- C797S - L858R
T6 construct: purchased Carna Bio
Summary of the method: as §1

[1] = target: T7, EGFR[T790M/C797S/d746-750] (Homo sapiens, UniProt P00533, C797S/DEL746-750/T790M); assay: Inhibition of EGFR[T790M/C797S/d746-750] biochemical enzymatic activity (HTRF); conditions: EGFR T790M-C797S-Del19, 1 mM ATP, 1 h, room temperature, read-out: IC50 (nM) @T790M - C797S - Del19
T7 construct: purchased Carna Bio
Summary of the method: as §1

EGFR (d746-750 C797S) = target: T8, EGFR (d746-750 C797S) (Homo sapiens, UniProt P00533, C797S/DEL746-750); assay: Inhibition of EGFR (d746-750 C797S) biochemical enzymatic activity (HTRF); conditions: EGFR Del19-C797S, 1 mM ATP, 1 h, room temperature, read-out: IC50 (nM) @Del19-C797S
T8 construct: purchased signalchem
Summary of the method: as §1

EGFR (C797S L858R) = target: T9, EGFR (C797S L858R) (Homo sapiens, UniProt P00533, C797S/L858R); assay: Inhibition of EGFR (C797S L858R) biochemical enzymatic activity (HTRF); conditions: EGFR L858-C797S, 1 mM ATP, 1 h, room temperature, read-out: IC50 (nM) @L858-C797S
T9 construct: purchased signalchem
Summary of the method: as §1

[2] = system: Ba/F3 cells expressing EGFR mutations; assay: Cell proliferation assay, Ba/F3 cells expressing EGFR mutations (CellTiter-Glo, 72 hours); type: cell-based; conditions: Mus musculus, BaF3, 72 h
Summary of the method: (§2)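 In RPMI1640 medium (PC-9 with 10% FBS), each cell line was seeded at its own density: Ba/F3 5000 and PC-9 500 per well. A compound series was added the next day, with a time-zero viability plate read in parallel. Percent proliferation was subtracted for G0 and referenced to DMSO, and GI50 was derived by curve fitting.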

PC-9 = assay: Cell proliferation assay, PC-9 cells (CellTiter-Glo, 72 hours); type: cell-based; conditions: Homo sapiens, PC-9, 72 h, PC9 cells, read-out: GI50 PC9
Summary of the method: as §2

A-431 = assay: Cell proliferation assay, A-431 cells (GI50, Table 6); type: cell-based; conditions: Homo sapiens, A-431, A-431 cells
[3] = BaF3 cells, EGFR DEL19 - C797S, read-out: GI50 DEL19 - C797S/BaF3
[4] = BaF3 cells, EGFR DEL19 - T790-C797S, read-out: GI50 DEL19 - T790-C797S/BaF3
[5] = BaF3 cells, EGFR L858R - C797S, read-out: GI50 L858R - C797S/BaF3
[6] = BaF3 cells, EGFR L858R - T790-C797S, read-out: GI50 L858R - T790-C797S/BaF3
[7] = BaF3 cells, EGFR L858R - T790M, read-out: GI50 L858R - T790M/BaF3
[8] = BaF3 cells, EGFR L858R, read-out: GI50 L858R/BaF3
[9] = EGFR DEL19 - T790M, read-out: GI50 DEL19 - T790M

T1 sequence (P00533 25-1210): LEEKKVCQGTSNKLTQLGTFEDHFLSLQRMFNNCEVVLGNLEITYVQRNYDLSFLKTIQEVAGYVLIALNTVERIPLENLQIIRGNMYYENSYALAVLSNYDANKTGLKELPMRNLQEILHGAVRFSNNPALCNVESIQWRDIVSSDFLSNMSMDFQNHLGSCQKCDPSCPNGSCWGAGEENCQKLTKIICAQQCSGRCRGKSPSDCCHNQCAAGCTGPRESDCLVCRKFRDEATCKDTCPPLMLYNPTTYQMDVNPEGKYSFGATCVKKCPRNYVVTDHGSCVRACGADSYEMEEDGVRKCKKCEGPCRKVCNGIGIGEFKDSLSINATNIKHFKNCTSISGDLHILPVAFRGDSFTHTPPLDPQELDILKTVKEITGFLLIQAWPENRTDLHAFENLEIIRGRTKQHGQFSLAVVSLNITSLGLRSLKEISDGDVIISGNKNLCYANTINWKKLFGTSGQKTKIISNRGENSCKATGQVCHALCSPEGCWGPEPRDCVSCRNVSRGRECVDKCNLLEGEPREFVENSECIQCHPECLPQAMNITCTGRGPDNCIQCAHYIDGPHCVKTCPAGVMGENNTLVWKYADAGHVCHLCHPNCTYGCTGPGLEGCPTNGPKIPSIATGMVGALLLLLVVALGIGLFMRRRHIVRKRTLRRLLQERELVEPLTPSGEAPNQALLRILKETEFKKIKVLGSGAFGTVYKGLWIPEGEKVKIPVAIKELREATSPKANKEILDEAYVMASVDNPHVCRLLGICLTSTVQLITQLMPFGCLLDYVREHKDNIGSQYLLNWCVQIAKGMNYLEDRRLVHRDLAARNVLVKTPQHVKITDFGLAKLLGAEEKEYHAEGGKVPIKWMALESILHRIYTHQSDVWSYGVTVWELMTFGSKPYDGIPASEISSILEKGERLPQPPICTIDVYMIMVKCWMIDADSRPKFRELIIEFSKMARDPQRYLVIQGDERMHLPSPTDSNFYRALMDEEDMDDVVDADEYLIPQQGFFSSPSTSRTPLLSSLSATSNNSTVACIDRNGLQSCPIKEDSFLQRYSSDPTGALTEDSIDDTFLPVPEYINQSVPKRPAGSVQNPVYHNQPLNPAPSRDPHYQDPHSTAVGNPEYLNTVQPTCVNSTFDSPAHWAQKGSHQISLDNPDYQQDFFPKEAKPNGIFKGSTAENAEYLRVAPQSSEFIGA
T3 sequence (P00533 25-1210 T790M/L858R): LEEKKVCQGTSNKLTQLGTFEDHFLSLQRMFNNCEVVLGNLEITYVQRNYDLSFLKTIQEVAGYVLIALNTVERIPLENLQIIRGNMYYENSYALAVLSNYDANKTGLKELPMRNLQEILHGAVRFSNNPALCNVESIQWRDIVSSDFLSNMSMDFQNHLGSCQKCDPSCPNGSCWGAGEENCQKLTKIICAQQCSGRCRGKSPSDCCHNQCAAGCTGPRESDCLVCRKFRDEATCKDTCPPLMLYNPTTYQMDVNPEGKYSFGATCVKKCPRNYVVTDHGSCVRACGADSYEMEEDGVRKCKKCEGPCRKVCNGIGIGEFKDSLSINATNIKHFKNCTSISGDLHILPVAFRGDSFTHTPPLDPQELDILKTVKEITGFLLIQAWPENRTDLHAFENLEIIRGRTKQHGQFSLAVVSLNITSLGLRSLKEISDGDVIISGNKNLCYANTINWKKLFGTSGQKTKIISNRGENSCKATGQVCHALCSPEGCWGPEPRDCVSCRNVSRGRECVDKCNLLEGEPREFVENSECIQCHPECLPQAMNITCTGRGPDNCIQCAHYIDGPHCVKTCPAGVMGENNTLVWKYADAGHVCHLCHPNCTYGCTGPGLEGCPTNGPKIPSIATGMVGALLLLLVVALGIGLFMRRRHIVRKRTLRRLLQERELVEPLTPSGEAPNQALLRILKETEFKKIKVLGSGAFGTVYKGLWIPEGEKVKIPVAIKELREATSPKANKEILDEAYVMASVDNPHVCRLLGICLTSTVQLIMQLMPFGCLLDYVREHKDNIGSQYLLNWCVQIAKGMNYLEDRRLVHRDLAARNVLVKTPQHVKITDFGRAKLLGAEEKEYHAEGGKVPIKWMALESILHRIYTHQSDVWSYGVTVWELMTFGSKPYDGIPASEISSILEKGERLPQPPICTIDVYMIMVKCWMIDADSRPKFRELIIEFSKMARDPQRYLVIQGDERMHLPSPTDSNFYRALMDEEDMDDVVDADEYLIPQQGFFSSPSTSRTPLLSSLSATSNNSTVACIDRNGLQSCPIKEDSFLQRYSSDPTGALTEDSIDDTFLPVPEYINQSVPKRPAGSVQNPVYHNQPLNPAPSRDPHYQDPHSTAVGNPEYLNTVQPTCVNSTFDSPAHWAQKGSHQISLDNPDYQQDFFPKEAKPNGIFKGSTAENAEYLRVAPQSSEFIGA
T6 sequence (P00533 25-1210 T790M/C797S/L858R): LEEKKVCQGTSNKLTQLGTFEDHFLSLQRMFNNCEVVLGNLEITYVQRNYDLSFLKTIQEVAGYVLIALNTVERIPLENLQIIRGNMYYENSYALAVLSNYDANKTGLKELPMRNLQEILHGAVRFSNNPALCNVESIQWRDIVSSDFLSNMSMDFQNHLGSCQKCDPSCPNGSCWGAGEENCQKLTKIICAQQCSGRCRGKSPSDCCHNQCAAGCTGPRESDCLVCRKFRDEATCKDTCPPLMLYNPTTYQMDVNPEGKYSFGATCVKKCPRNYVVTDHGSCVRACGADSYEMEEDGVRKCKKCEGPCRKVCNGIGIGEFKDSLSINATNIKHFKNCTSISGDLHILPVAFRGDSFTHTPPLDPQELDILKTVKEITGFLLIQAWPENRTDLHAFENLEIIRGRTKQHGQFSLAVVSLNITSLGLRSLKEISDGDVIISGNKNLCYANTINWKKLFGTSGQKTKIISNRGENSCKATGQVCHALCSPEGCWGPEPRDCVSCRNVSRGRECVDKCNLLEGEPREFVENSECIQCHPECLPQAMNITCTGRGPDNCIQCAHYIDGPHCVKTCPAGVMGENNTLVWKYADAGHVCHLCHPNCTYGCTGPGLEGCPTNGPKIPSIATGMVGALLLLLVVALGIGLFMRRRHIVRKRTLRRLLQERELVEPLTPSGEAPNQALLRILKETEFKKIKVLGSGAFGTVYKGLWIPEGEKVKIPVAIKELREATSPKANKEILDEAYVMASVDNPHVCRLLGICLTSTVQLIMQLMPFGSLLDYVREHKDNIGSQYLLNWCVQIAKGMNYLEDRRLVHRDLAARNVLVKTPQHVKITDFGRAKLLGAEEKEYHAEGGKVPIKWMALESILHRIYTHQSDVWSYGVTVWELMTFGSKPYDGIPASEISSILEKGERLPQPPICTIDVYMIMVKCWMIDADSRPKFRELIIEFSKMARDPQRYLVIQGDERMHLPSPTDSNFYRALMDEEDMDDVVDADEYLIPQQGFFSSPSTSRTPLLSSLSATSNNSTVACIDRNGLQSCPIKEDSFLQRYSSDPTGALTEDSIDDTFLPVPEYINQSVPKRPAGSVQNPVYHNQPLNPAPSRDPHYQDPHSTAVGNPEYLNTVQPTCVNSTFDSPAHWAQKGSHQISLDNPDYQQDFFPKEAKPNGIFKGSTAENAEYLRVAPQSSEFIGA
T9 sequence (P00533 25-1210 C797S/L858R): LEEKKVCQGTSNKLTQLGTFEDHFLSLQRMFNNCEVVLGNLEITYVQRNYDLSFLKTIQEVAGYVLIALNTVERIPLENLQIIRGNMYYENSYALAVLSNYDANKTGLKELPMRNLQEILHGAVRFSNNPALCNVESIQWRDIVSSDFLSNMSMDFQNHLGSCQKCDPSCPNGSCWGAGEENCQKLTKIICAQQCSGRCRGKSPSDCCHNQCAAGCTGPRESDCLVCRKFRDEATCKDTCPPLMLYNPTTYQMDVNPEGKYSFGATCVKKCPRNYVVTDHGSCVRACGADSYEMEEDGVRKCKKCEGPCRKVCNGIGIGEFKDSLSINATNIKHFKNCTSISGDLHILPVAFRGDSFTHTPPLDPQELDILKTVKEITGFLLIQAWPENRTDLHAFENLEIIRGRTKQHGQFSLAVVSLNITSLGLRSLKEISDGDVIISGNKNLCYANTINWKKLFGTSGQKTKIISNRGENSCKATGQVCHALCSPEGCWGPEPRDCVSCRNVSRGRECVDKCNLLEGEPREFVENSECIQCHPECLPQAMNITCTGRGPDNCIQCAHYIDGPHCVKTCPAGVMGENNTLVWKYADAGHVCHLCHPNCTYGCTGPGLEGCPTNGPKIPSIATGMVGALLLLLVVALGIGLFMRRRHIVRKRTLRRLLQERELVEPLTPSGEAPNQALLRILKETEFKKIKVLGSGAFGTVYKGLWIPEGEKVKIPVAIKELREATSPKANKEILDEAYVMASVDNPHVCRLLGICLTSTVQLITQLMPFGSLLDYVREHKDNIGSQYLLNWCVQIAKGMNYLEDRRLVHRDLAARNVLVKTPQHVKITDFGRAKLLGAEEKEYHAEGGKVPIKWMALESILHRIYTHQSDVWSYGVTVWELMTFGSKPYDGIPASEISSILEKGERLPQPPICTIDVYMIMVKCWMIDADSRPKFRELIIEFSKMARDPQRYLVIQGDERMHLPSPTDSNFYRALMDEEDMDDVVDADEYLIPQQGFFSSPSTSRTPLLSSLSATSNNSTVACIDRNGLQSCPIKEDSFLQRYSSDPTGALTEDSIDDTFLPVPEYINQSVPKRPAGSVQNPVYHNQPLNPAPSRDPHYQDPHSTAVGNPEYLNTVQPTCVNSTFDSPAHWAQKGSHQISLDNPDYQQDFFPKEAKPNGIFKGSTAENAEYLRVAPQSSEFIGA

CN(C)C1CCN(c2ccc3nc4n(c3c2)C23CCC(CC2)CN(CCOc2c(cnn2C)-c2cc(cn(C)c2=O)C(=O)N4)C3)CC1 [Example A119, 5-[4-(dimethylamino)piperidin-1-yl]-15,21-dimethyl-23-oxa-2,9,11,15,20,21,26-heptaazaheptacyclo[26.2.2.1^{1,26}.1^{13,17}.0^{2,10}.0^{3,8}.0^{18,22}]tetratriaconta-3,5,7,9,13,17(34),18(22),19-octaene-12,16-dione]
IC50 (EGFR wild type): 1060 nM | IC50 (EGFR L858R): 38 nM | IC50 (EGFR L858R/T790M): 32 nM | pIC50 (EGFR Exon19Del): 8.12 | IC50 (EGFR Exon19Del/T790M): 6.6 nM | IC50 (EGFR[T790M/C797S/L858R]): 9 nM | IC50 [1]: 3 nM | IC50 (EGFR (d746-750 C797S)): 4.7 nM | IC50 (EGFR (C797S L858R)): 19 nM | GI50 [2, 3]: 1.5 nM | GI50 [2, 4]: 11 nM | GI50 [2, 5]: 11 nM | GI50 [2, 6]: 6.6 nM | GI50 [2, 7]: 15 nM | GI50 [2, 8]: 2.1 nM | GI50 [2, 9]: 7.3 nM | GI50 (PC-9): 11 nM | GI50 (A-431): 1070 nM

CN(C)[C@H]1CCN(c2ccc3nc4n(c3c2)C23CCC(CC2)CN(CCOc2c(cnn2C)-c2cc(cn(C)c2=O)C(=O)N4)C3)C1 [Example A120]
IC50 (EGFR wild type): > 5000 nM | IC50 (EGFR L858R): 177 nM | IC50 (EGFR L858R/T790M): 374 nM | pIC50 (EGFR Exon19Del): 7.66 | IC50 (EGFR Exon19Del/T790M): 16 nM | IC50 (EGFR[T790M/C797S/L858R]): 113 nM | IC50 [1]: 15 nM | IC50 (EGFR (d746-750 C797S)): 14 nM | IC50 (EGFR (C797S L858R)): 108 nM | GI50 [2, 3]: 13 nM | GI50 [2, 4]: 71 nM | GI50 [2, 5]: 50 nM | GI50 [2, 6]: 28 nM | GI50 [2, 7]: 113 nM | GI50 [2, 8]: 8.1 nM | GI50 [2, 9]: 40 nM | GI50 (PC-9): 54 nM | GI50 (A-431): 7850 nM

CN(C)[C@@H]1CCN(c2ccc3nc4n(c3c2)C23CCC(CC2)CN(CCOc2c(cnn2C)-c2cc(cn(C)c2=O)C(=O)N4)C3)C1 [Example A121]
IC50 (EGFR wild type): > 5000 nM | IC50 (EGFR L858R): 167 nM | IC50 (EGFR L858R/T790M): 477 nM | pIC50 (EGFR Exon19Del): 7.60 | IC50 (EGFR Exon19Del/T790M): 21 nM | IC50 (EGFR[T790M/C797S/L858R]): 154 nM | IC50 [1]: 10 nM | IC50 (EGFR (d746-750 C797S)): 19 nM | IC50 (EGFR (C797S L858R)): 101 nM | GI50 [2, 3]: 7.8 nM | GI50 [2, 4]: 44 nM | GI50 [2, 5]: 35 nM | GI50 [2, 6]: 15 nM | GI50 [2, 7]: 61 nM | GI50 [2, 8]: 12 nM | GI50 [2, 9]: 25 nM | GI50 (PC-9): 27 nM | GI50 (A-431): 4970 nM

CN1CCC12CCN(c1ccc3nc4n(c3c1)C13CCC(CC1)CN(CCOc1c(cnn1C)-c1cc(cn(C)c1=O)C(=O)N4)C3)CC2 [Example A122]
IC50 (EGFR wild type): 1420 nM | IC50 (EGFR L858R): 48 nM | IC50 (EGFR L858R/T790M): 39 nM | pIC50 (EGFR Exon19Del): 8.17 | IC50 (EGFR Exon19Del/T790M): 7.6 nM | IC50 (EGFR[T790M/C797S/L858R]): 8.1 nM | IC50 [1]: 5.2 nM | IC50 (EGFR (d746-750 C797S)): 3.5 nM | IC50 (EGFR (C797S L858R)): 25 nM | GI50 [2, 3]: 3.2 nM | GI50 [2, 4]: 22 nM | GI50 [2, 5]: 19 nM | GI50 [2, 6]: 13 nM | GI50 [2, 7]: 82 nM | GI50 [2, 8]: 4.1 nM | GI50 (PC-9): 22 nM | GI50 (A-431): 2100 nM

CN1CCC2(CC1)CCN(c1ccc3nc4n(c3c1)C13CCC(CC1)CN(CCOc1c(cnn1C)-c1cc(cn(C)c1=O)C(=O)N4)C3)C2 [Example A123]
IC50 (EGFR wild type): > 5000 nM | IC50 (EGFR L858R): 65 nM | IC50 (EGFR L858R/T790M): 223 nM | pIC50 (EGFR Exon19Del): 7.89 | IC50 (EGFR Exon19Del/T790M): 13 nM | IC50 (EGFR[T790M/C797S/L858R]): 23 nM | IC50 [1]: 11 nM | IC50 (EGFR (d746-750 C797S)): 9.4 nM | IC50 (EGFR (C797S L858R)): 57 nM | GI50 [2, 3]: 12 nM | GI50 [2, 4]: 45 nM | GI50 [2, 5]: 32 nM | GI50 [2, 6]: 20 nM | GI50 [2, 7]: 59 nM | GI50 [2, 8]: 5.8 nM | GI50 [2, 9]: 27 nM | GI50 (PC-9): 25 nM | GI50 (A-431): 6110 nM
